Article PMC2754045 (Biochemistry, 2009)
Where two headings read alike, the source gives them in different places. Marks after values point to notes of the source that are not given here. Bridges are numbered along the chain shown (N, C = ends). Where no end group is shown, it is not given here.

Assays:
mTRΔ8 [1] = biological target: T1, mTRΔ8 (Mus musculus, UniProt Q9JLT4); test: Substrate reduction by truncated mammalian TR; assay type: biochemical; details: for pH optimum of substrate reduction: truncated Δ8 enzyme; for Reduction by the truncated enzyme (in words): direct reduction by the N-terminal reaction center
DmTR-SCCS = DmTR-SCCS (Drosophila melanogaster, UniProt P91938); test: Substrate reduction by full-length Drosophila TR
[2] = cited from earlier work
mTR-GCUG [3] = biological target: T2, mTR-GCUG (Mus musculus, UniProt Q9JLT4); test: Substrate reduction by full-length wild type mammalian TR
DmTRΔ8 [4] = biological target: T3, DmTRΔ8 (Drosophila melanogaster, UniProt P91938); test: Substrate reduction by truncated Drosophila TR; assay type: biochemical
mTRΔ8 [5] = biological target: T1, mTRΔ8; details: pH 7.0; cited from earlier work
DmTRΔ8 [6] = biological target: T3, DmTRΔ8; details: pH 7.0; cited from earlier work
mTR-GCUG [7] = biological target: T2, mTR-GCUG; test: Inhibition of TR by gold compounds; assay type: biochemical; details: full-length wild type (Sec) enzyme, 4 nM enzyme, 3 mM DTNB, pH 7.4
mTR-GCCG = mTR-GCCG (Mus musculus, UniProt Q9JLT4); assay type: biochemical; details: full-length enzyme without Sec (Cys2 mutant), 4 nM enzyme, 3 mM DTNB, pH 7.4
mTRΔ8 [8] = biological target: T1, mTRΔ8; test: Inhibition of TR by gold compounds; assay type: biochemical; details: truncated enzyme missing C-terminal tail, 2 nM enzyme, 3 mM DTNB, pH 7.4

T3 sequence (P91938 1-483 isoform P91938-2 limits assumed): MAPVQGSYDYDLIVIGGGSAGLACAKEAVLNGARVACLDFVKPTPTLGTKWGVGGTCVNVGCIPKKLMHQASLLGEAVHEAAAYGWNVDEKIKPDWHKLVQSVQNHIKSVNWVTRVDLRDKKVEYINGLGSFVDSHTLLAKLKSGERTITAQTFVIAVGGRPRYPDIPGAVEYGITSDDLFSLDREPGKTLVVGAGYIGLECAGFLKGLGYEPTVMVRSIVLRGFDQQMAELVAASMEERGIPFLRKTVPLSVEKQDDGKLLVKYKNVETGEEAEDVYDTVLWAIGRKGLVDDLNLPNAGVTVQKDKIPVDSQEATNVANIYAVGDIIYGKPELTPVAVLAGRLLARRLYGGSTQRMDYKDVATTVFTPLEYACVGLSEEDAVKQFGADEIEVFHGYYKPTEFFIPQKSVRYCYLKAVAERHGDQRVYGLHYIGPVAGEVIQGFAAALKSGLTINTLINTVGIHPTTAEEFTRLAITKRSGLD
Sequence of DmTR-SCCS (P91938 1-491 isoform P91938-2): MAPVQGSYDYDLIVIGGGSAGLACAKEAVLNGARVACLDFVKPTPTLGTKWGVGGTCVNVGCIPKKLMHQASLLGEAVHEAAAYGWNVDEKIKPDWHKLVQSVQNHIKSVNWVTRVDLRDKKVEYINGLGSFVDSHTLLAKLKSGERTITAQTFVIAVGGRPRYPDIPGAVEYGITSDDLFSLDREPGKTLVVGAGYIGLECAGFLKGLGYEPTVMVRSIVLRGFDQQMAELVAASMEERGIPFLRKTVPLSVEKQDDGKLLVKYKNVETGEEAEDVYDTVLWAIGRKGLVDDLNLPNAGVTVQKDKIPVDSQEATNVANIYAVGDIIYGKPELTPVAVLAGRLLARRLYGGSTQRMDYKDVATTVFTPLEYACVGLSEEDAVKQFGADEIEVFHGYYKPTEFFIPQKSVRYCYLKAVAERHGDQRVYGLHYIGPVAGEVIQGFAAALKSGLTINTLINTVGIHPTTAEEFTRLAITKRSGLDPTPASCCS

NC(=O)CCCCC1CCSS1 (centres unmarked) [lipoamide]
Higher activity in presence of 50 mM acetate (mTRΔ8 [1]; pH 6.1): 23.6%
Higher activity in presence of 50 mM acetate (mTRΔ8 [1]; pH 7.0): 17.5%
Drop in Km compared to lipoic acid (mTRΔ8 [1]; truncated enzyme): ~3 fold
pH optimum of substrate reduction (mTRΔ8 [1]): ~ 8.5

N[C@@H](C[Se][Se]C[C@H](N)C(=O)O)C(=O)O [selenocystine]
Reduction by the truncated enzyme (in words) (mTRΔ8 [1]): cannot directly reduce
pH optimum of substrate reduction (mTRΔ8 [1]): ~8.0
Difference in activities between the mammalian enzyme and DmTR (DmTR-SCCS; pH 7.0, 91 μM substrate): ~ 3 fold

O=[Se]([O-])[O-].[Na+].[Na+] [selenite, sodium selenite]
Activity lower than the WT enzyme (mTRΔ8 [1]; mTRΔ8 versus WT, pH 7.0): 6 fold
pH optimum of substrate reduction (mTRΔ8 [1]): ~6.0

N[C@@H](CSSC[C@H](N)C(=O)O)C(=O)O [cystine]
Reduction by the truncated enzyme (in words) (mTRΔ8 [1]): could not be reduced
Leaving Group pKa ([2]; thiolate): ~ 8.3
Reduction by the WT enzyme (in words) (mTR-GCUG [3]): cannot be reduced

O[C@@H]1CSSC[C@H]1O (relative stereo) [DTT(ox), trans-4,5-dihydroxy-1,2-dithiane]
Activity at 5 mM Substrate (mTRΔ8 [1]; pH 7.0): 0.234 mol NADPH/min/mol TR
Activity at 5 mM Substrate (DmTRΔ8 [4]; pH 7.0): 0.109 mol NADPH/min/mol TR
Leaving Group pKa [2]: 9.2 ^e

O=C(O)c1cc(SSc2ccc([N+](=O)[O-])c(C(=O)O)c2)ccc1[N+](=O)[O-] [DTNB, 5,5′dithio-bis(2-nitrobenzoic acid), reference compound]
Activity at 5 mM Substrate (mTRΔ8 [1]; pH 7.0): 2430 mol NADPH/min/mol TR
Activity at 5 mM Substrate (DmTRΔ8 [4]; pH 7.0): 519 mol NADPH/min/mol TR

N[C@@H](CCC(=O)N[C@@H](CSN=O)C(=O)NCC(=O)O)C(=O)O [GSNO, S-nitrosoglutathione]
Leaving Group pKa ([2]; HNO in GSNO): 4.7

PTVTGCCG(ox): peptide containing a Cys1-Cys2 vicinal disulfide bond (8-membered ring) (disulfide 6-7)
Activity at 5 mM Substrate (mTRΔ8 [5]): 0.153 mol NADPH/min/mol TR

PTPASCCS(ox): Cys1-Cys2 vicinal disulfide peptide substrate of DmTR (disulfide 6-7)
Activity at 5 mM Substrate (DmTRΔ8 [6]): 233 mol NADPH/min/mol TR

OC[C@H]1O[C@H]([S-])[C@H](O)[C@@H](O)[C@@H]1O.[Au+] [aurothioglucose]
IC50 (mTR-GCUG [7]): 83 nM
IC50 (mTR-GCCG): 142 nM
IC50 (mTRΔ8 [8]): 25 nM

O=S(O)O [sulfite]
Activity as substrate (in words) (mTR-GCUG [3]; TR form not stated, data not shown): unable to detect activity

O=C(O)CCCC[C@@H]1CCSS1 [Lipoic Acid, lipoic acid]
kcat increase compared to the WT enzyme at pH 7.0 (mTRΔ8 [1]; mTRΔ8 at pH 6.1): ~3.6 fold
Activity at 5 mM Substrate (mTRΔ8 [1]; pH 6.1): 102 mol NADPH/min/mol TR
Activity at 5 mM Substrate (mTRΔ8 [1]; pH 7.0): 87.7 mol NADPH/min/mol TR
pH optimum of substrate reduction (mTRΔ8 [1]): 6.1
Turnover faster in comparison to DTT(ox) (DmTRΔ8 [4]; 5 mM substrate, pH 7.0): 190 fold
Activity at 5 mM Substrate (DmTRΔ8 [4]; pH 7.0): 20.8 mol NADPH/min/mol TR
pH optimum of substrate reduction (DmTRΔ8 [4]; truncated DmTRΔ8): ~7.5
pH optimum of substrate reduction (DmTR-SCCS; full-length DmTR): ~7.5
pH optimum of substrate reduction (mTR-GCUG [3]; full-length enzyme): ~7.5

CC(=O)OC[C@H]1O[C@@H]([S-])[C@H](OC(C)=O)[C@@H](OC(C)=O)[C@@H]1OC(C)=O.CCP(CC)CC.[Au+] [auranofin]
IC50 (mTR-GCUG [7]): 75 nM
IC50 (mTRΔ8 [8]): 850 nM
